Each structure is given as a SMILES string. Some results are limits rather than exact numbers.

The test system of this data set is SRBC. The experiment in a line: Hemolysis of SRBC. The format is cell-based. The conditions noted are these: concentration necessary to achieve 50% hemolysis of SRBC.
In the case of `[2H]C([2H])([2H])N1c2c(O)cccc2C(=O)N(C/C=C(\C)CC/C=C(\C)CCC=C(C)C)c2cc(O)cc(O)c21` [Compound 98, 10-Farnesyl-4,6,8-trihydroxy-5-(trideuteriomethyl)-5,10-dihydro-dibenzo[b,e][1,4]diazepin-11-one], the “Hemolysis (ED50 μg/mL)” value amounted to 4.5 µg/mL.

Consider `CC(C)=CCC/C(C)=C/CC/C(C)=C/CN1C(=O)c2cccc(O)c2Nc2c1cc(O)c(Br)c2O` [Compound 97, 10-(farnesyl)-7-bromo-4,6,8-trihydroxy-5,10-dihydro-dibenzo[b,e][1,4]diazepin-11-one], for which the “Hemolysis (ED50 μg/mL)” value came out at 15.1 µg/mL.

Take `CCCCN1c2c(O)cccc2C(=O)N(C/C=C(\C)CC/C=C(\C)CCC=C(C)C)c2cc(O)cc(O)c21` [Compound 64, 10-farnesyl-4,6,8-trihydroxy-5-n-butyl-5,10-dihydro-dibenzo[b,e][1,4]diazepin-11-one]: the “Hemolysis (ED50 μg/mL)” value is above 64 µg/mL.

For `CCCN1c2c(O)cccc2C(=O)N(C/C=C(\C)CC/C=C(\C)CCC=C(C)C)c2cc(O)cc(O)c21` [Compound 63, 10-farnesyl-4,6,8-trihydroxy-5-n-propyl-5,10-dihydro-dibenzo[b,e][1,4]diazepin-11-one], the “Hemolysis (ED50 μg/mL)” value is above 64 µg/mL.

Turning to `CC(C)CCCC(C)CCCC(C)CCN1C(=O)c2cccc(O)c2N(C)c2c(O)cc(O)cc21` (stereo not drawn) [Compound 78, 10-(3,7,11-trimethyldodecyl)-4,6,8-trihydroxy-5-methyl-5,10-dihydro-dibenzo[b,e][1,4]diazepin-11-one], the “Hemolysis (ED50 μg/mL)” value came to 9.89 µg/mL.

With `CC(C)=CCCC(C)(O)CCCC(C)=CCN1C(=O)c2cccc(O)c2Nc2c(O)cc(O)cc21` (stereo not drawn) [Compound 89, 10-(7-hydroxy-3,7,11-trimethyldodeca-2,10-dienyl)-4,6,8-trihydroxy-5,10-dihydro-dibenzo[b,e][1,4]diazepin-11-one], the “Hemolysis (ED50 μg/mL)” value was above 64 µg/mL.

As for `COC(C)(C)CCCC(C)=CCCC(C)=CCN1C(=O)c2cccc(O)c2Nc2c(O)cc(O)cc21` [Compound 82, 10-(11-methoxy-3,7,11-trimethyl-2,6-dodecadienyl)-4,6,8-trihydroxy-5,10-dihydro-dibenzo[b,e][1,4]diazepin-11-one], the “Hemolysis (ED50 μg/mL)” value was above 64 µg/mL.

Consider `CCN1c2c(O)cccc2C(=O)N(CC=C(C)CCC=C(C)CCCC(C)(C)OC)c2cc(O)cc(O)c21` [Compound 85, 10-(11-methoxy-3,7,11-trimethyl-2,6-dodecadienyl)-4,6,8-trihydroxy-5-ethyl-5,10-dihydro-dibenzo[b,e][1,4]diazepin-11-one], for which the “Hemolysis (ED50 μg/mL)” value is above 64 µg/mL.

Take `CCC(C)N1c2c(O)cccc2C(=O)N(C/C=C(\C)CC/C=C(\C)CCC=C(C)C)c2cc(O)cc(O)c21` (stereo not drawn) [Compound 77, 10-Farnesyl-4,6,8-trihydroxy-5-sec-butyl-5,10-dihydro-dibenzo[b,e][1,4]diazepin-11-one]: the “Hemolysis (ED50 μg/mL)” value stood at 60.9 µg/mL.

On to `COC(C)(C)CCCC(C)(CCCC(C)=CCN1C(=O)c2cccc(O)c2Nc2c(O)cc(O)cc21)OC` (stereo not drawn) [Compound 84, 10-(7,11-dimethoxy-3,7,11-trimethyl-2-dodecenyl)-4,6,8-trihydroxy-5,10-dihydro-dibenzo[b,e][1,4]diazepin-11-one], for which the “Hemolysis (ED50 μg/mL)” value was above 32 µg/mL.

`CC(=O)NC(C)(CCC=C(C)C)CCCC(C)=CCN1C(=O)c2cccc(O)c2Nc2c(O)cc(O)cc21` (stereo not drawn) [Compound 92, 10-(7-acetamido-3,7,11-trimethyldodeca-2,10-dienyl)-4,6,8-trihydroxy-5,10-dihydro-dibenzo[b,e][1,4]diazepin-11-one]: the “Hemolysis (ED50 μg/mL)” value is above 64 µg/mL.

Regarding `CCCCCCN1c2c(O)cccc2C(=O)N(C/C=C(\C)CC/C=C(\C)CCC=C(C)C)c2cc(O)cc(O)c21` [Compound 67, 10-farnesyl-4,6,8-trihydroxy-5-n-hexyl-5,10-dihydro-dibenzo[b,e][1,4]diazepin-11-one], the “Hemolysis (ED50 μg/mL)” value was above 64 µg/mL.

(Values after US20090062255A1, “TUMOR-TARGETING EVALUATION METHODOLOGY AND COMPOUNDS RELATED THERETO” (THALLION PHARMACEUTICALS INC., priority 2007, published 2009).)
